Measurements as given in patent EP0400190A1, “New water-soluble derivatives of nabumetone, a process for their preparation and pharmaceutical compositions which contain them” (MAGIS FARMACEUTICI S.p.A., priority 1989, dated 1990).

Key:
[1] = tested on: edema induced in the rat by formalin; assay: Anti-inflammatory activity on formalin-induced edema; type: in vivo; settings: read-out: ED₅₀
Text: The anti-inflammatory activity of these enamines was studied in comparison with acetylsalicylic acid on edema induced in the rat by formalin.

[2] = tested on: mice; assay: Analgesic activity, Writhing test using p-phenylquinone; type: in vivo; settings: Mus musculus, po, mice treated orally, read-out: ED₅₀
Description: The analgesic activity was measured by the Writhing test using p-phenylquinone on mice treated orally with the nabumetone enamines in comparison with acetylsalicylic acid, the results showing an ED₅₀ (mg/Kg) for the enamines of about 80 whereas for acetylsalicylic acid the value is about 106.1.

Question: For `CC(=O)Oc1ccccc1C(=O)O` [acetylsalicylic acid], which ED50 [1] is on record?
Answer: The ED50 was roughly 313 mg/kg.

Question: And the ED50 [2]?
Answer: Its ED50 is roughly 106 mg/kg.
